Results as given in the NIST ThermoML archive (doi:10.1016/j.fluid.2017.09.007).
± gives the expanded uncertainty stated by the source.

Key:
[1] = Crystal; DTA
[2] = Molar enthalpy of transition or fusion; details: Crystal; DSC

Question: For `C[C@]12CCC(=O)C=C1CC[C@@H]1[C@@H]2[C@@H](O)C[C@@]2(C)[C@H]1CC[C@]2(O)C(=O)CO` [11β,17α,21-trihydroxypregn-4-ene-3,20-dione], which Normal melting temperature [1] is on record?
Answer: The Normal melting temperature was 221.60 ± 1.1 °C.

Question: And the “Molar enthalpy of transition or fusion” value [2]?
Answer: The value was 9.15 ± 0.311 kcal/mol.
